What all share (assay): relative viability (nuclei count vs DMSO), 5 days (fraction); higher = more cells survive
Compound in test [1]: C1=CC=C(C(=C1)C2=CC=C(C=C2)C3=CSC4=C3C(=C(C(=O)N4)C#N)O)O + Cc1cc(Nc2cc(N3CCN(C)CC3)nc(Sc3ccc(NC(=O)C4CC4)cc3)n2)n[nH]1 [Tozasertib] (partner 0.1 µM)
The method, boiled down:
(§1)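 Lung cancer cell lines in 1536-well plates got either a single drug or a fixed anchor-drug dose together with five library-drug doses (not always all listed) in √10 steps, by pin tool, on the day after seeding. Nuclei were counted after 5 days, and relative viability is the treated-to-vehicle ratio of nuclei counts. Values are medians of duplicate plates.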

Compound in the test “TGX 221 + Trametinib”: CC1=CN2C(=O)C=C(N=C2C(=C1)C(C)NC3=CC=CC=C3)N4CCOCC4 [TGX 221] + CC(=O)Nc1cccc(-n2c(=O)n(C3CC3)c(=O)c3c(Nc4ccc(I)cc4F)n(C)c(=O)c(C)c32)c1 [Trametinib] (partner 0.02 µM)
The method, boiled down:
as §1

Compound in the test “TGX 221 + Pemetrexed”: CC1=CN2C(=O)C=C(N=C2C(=C1)C(C)NC3=CC=CC=C3)N4CCOCC4 [TGX 221] + Nc1nc2[nH]cc(CCc3ccc(C(=O)N[C@@H](CCC(=O)O)C(=O)O)cc3)c2c(=O)[nH]1 [Pemetrexed] (partner 0.2 µM)
Put shortly: as §1

Compound in the test “Ricolinostat + Dasatinib”: O=C(CCCCCCNC(=O)c1cnc(N(c2ccccc2)c2ccccc2)nc1)NO [Ricolinostat] + Cc1nc(Nc2ncc(C(=O)Nc3c(C)cccc3Cl)s2)cc(N2CCN(CCO)CC2)n1 [Dasatinib] (partner 0.075 µM)
The method, boiled down:
as §1

SK-MES-1: the relative viability in test [1] (first compound 0.08 µM) amounted to 0.842; in test [1] (first compound 0.253 µM) it was 1.07; in test [1] (first compound 0.8 µM), 0.942; in test [1] (first compound 2.53 µM) it was 1.01; in test [1] (first compound 8 µM) it was 0.923; with TGX 221 + Trametinib (first compound 0.08 µM), 0.526. The relative viability in the test with TGX 221 + Trametinib (first compound 0.253 µM) amounted to 0.572; with TGX 221 + Trametinib (first compound 0.8 µM) it was 0.449; with TGX 221 + Trametinib (first compound 2.53 µM) it was 0.379; with TGX 221 + Trametinib (first compound 8 µM) it was 0.339; with TGX 221 + Pemetrexed (first compound 0.08 µM), 0.932; with TGX 221 + Pemetrexed (first compound 0.253 µM), 0.925. Further, the relative viability was found to be 0.948 with TGX 221 + Pemetrexed (first compound 0.8 µM); 0.842 in the test with TGX 221 + Pemetrexed (first compound 2.53 µM); 0.693 in the test with TGX 221 + Pemetrexed (first compound 8 µM); 0.25 in the test with Ricolinostat + Dasatinib (first compound 0.08 µM); 0.288 with Ricolinostat + Dasatinib (first compound 0.253 µM); 0.451 in the test with Ricolinostat + Dasatinib (first compound 0.8 µM). Further, the relative viability with Ricolinostat + Dasatinib (first compound 2.53 µM) was 0.44.

Turning to SW 900, the relative viability in test [1] (first compound 0.08 µM) worked out at 0.618; in test [1] (first compound 0.253 µM) it was 0.491; in test [1] (first compound 0.8 µM) it was 0.645; in test [1] (first compound 2.53 µM), 0.539; in test [1] (first compound 8 µM), 0.491; in the test with TGX 221 + Trametinib (first compound 0.253 µM), 0.613. The relative viability is 0.871 with TGX 221 + Trametinib (first compound 0.8 µM); 0.575 with TGX 221 + Trametinib (first compound 2.53 µM); 0.5 with TGX 221 + Trametinib (first compound 8 µM); 0.459 in the test with TGX 221 + Pemetrexed (first compound 0.253 µM); 0.469 with TGX 221 + Pemetrexed (first compound 0.8 µM); 0.41 in the test with TGX 221 + Pemetrexed (first compound 2.53 µM). Moreover, the relative viability turned out to be 0.415 in the test with TGX 221 + Pemetrexed (first compound 8 µM); 0.495 in the test with Ricolinostat + Dasatinib (first compound 0.08 µM); 0.578 in the test with Ricolinostat + Dasatinib (first compound 0.253 µM); 0.662 with Ricolinostat + Dasatinib (first compound 0.8 µM); 0.352 in the test with Ricolinostat + Dasatinib (first compound 2.53 µM).

On to SW 1573, for which the relative viability was determined as 0.175 in test [1] (first compound 0.08 µM); 0.205 in test [1] (first compound 0.253 µM); 0.203 in test [1] (first compound 0.8 µM); 0.152 in test [1] (first compound 2.53 µM); 0.199 in test [1] (first compound 8 µM); 0.518 with TGX 221 + Trametinib (first compound 0.08 µM). In addition, the relative viability in the test with TGX 221 + Trametinib (first compound 0.253 µM) is 0.429; with TGX 221 + Trametinib (first compound 0.8 µM) it was 0.567; in the test with TGX 221 + Trametinib (first compound 2.53 µM), 0.382; with TGX 221 + Trametinib (first compound 8 µM) it was 0.442; in the test with TGX 221 + Pemetrexed (first compound 0.08 µM), 0.781; with TGX 221 + Pemetrexed (first compound 0.253 µM), 0.788. Moreover, the relative viability with TGX 221 + Pemetrexed (first compound 0.8 µM) came to 0.807; with TGX 221 + Pemetrexed (first compound 2.53 µM) it was 0.789; with TGX 221 + Pemetrexed (first compound 8 µM), 0.725; in the test with Ricolinostat + Dasatinib (first compound 0.08 µM) it was 0.756; with Ricolinostat + Dasatinib (first compound 0.253 µM), 0.507; with Ricolinostat + Dasatinib (first compound 0.8 µM), 0.695. In the test with Ricolinostat + Dasatinib (first compound 2.53 µM), the relative viability is 0.581.

For the cell line UMC-11, the relative viability in test [1] (first compound 0.08 µM) worked out at 0.203; in test [1] (first compound 0.253 µM), 0.227; in test [1] (first compound 0.8 µM) it was 0.218; in test [1] (first compound 2.53 µM), 0.321; in test [1] (first compound 8 µM), 0.219; with TGX 221 + Trametinib (first compound 0.08 µM), 0.671. The relative viability in the test with TGX 221 + Trametinib (first compound 0.253 µM) turned out to be 0.648; in the test with TGX 221 + Trametinib (first compound 0.8 µM), 0.822; with TGX 221 + Trametinib (first compound 2.53 µM) it was 0.777; with TGX 221 + Trametinib (first compound 8 µM) it was 0.823; with TGX 221 + Pemetrexed (first compound 0.08 µM), 0.677; in the test with TGX 221 + Pemetrexed (first compound 0.253 µM) it was 0.717. Also, the relative viability with TGX 221 + Pemetrexed (first compound 0.8 µM) came out at 0.788; in the test with TGX 221 + Pemetrexed (first compound 2.53 µM), 0.815; in the test with TGX 221 + Pemetrexed (first compound 8 µM), 0.823; with Ricolinostat + Dasatinib (first compound 0.08 µM) it was 0.427; in the test with Ricolinostat + Dasatinib (first compound 0.253 µM), 0.39; with Ricolinostat + Dasatinib (first compound 0.8 µM), 0.399. For the same cell line, the relative viability with Ricolinostat + Dasatinib (first compound 2.53 µM) was 0.242.

These data come from the supplement of paper PMC10307832.
